Data published in US6245801A, “Branched alkyl pyrrolidine-3-carboxylic acids” (Warner-Lambert Company, priority 2000, dated 2001).

Key:
[1] = tested on: NA Release; test: NA Release, % inhibition; conditions: @ 100 μM
[2] = tested on: DBA/2 mice; test: DBA2 mouse model of anticonvulsant efficacy (sound-induced seizures); type: in vivo, mouse (male DBA/2); conditions: time not printed
Procedure: DBA2 Mouse Model of Anticonvulsant Efficacy
All procedures were carried out in compliance with the NIH Guide for the Care and Use of Laboratory Animals under a protocol approved by the Parke-Davis Animal Use Committee. Male DBA/2 mice, 3 to 4 weeks old were obtained from Jackson Laboratories Bar Harbour, Me. Immediately before anticonvulsant testing, mice were placed upon a wire mesh, 4 inches square, suspended from a steel rod. The square was slowly inverted through 180° and mice observed for 30 seconds. Any mouse falling from the wire mesh was scored as ataxic (Coughenour L. L., McLean J. R., Parker R. B., "A new device for the rapid measurement of impaired motor function in mice," Pharm. Biochem. Behav., 1977;6(3):351-3). Mice were placed into an enclosed acrylic plastic chamber (21 cm height, approximately 30 cm diameter) with a high-frequency speaker (4 cm diameter) in the center of the top lid. An audio signal generator (Protek model B-810) was used to produce a continuous sinusoidal tone that was swept linearly in frequency between 8 kHz and 16 kHz once each 10 msec. The average sound pressure level (SPL) during stimulation was approximately 100 dB at the floor of the chamber. Mice were placed within the chamber and allowed to acclimatize for one minute. DBA/2 mice in the vehicle-treated group responded to the sound stimulus (applied until tonic extension occurred, or for a maximum of 60 sec) with a characteristic seizure sequence consisting of wild running followed by clonic seizures, and later by tonic extension, and finally by respiratory arrest and death in 80% or more of the mice. In vehicle-treated mice, the entire sequence of seizures to respiratory arrest lasts approximately 15 to 20 seconds. The incidence of all the seizure phases in the drug-treated and vehicle-treated mice was recorded, and the occurrence of tonic seizures were used for calculating anticonvulsant ED50 values by probit analysis (Litchfield J. T., Wilcoxon F. "A simplified method for evaluating dose-effect experiments," J. Pharmacol., 1949;96:99-113). Mice were used only once for testing at each dose point. Groups of DBA/2 mice (n=5-10 per dose) were tested for sound-induced seizure responses 2 hours (previously determined time of peak effect) after given drug orally. All drugs in the present study were dissolved in distilled water and given by oral gavage in a volume of 10 mL/kg of body weight. Compounds that are insoluble will be suspended in 1% carboxymethocellulose. Doses are expressed as weight of the active drug moiety.

[3] = tested on: Vogel; test: Vogel; type: in vivo; conditions: relative to C1-1008
[4] = target: T1, α2δ subunit of a calcium channel (Sus scrofa, UniProt A0A287BIN3); test: [3H]gabapentin (GAP) radioligand binding assay, α2δ subunit; design: species or system porcine (brain tissue)
T1 construct: α2δ subunit derived from porcine brain tissue; from tissue; host or cells: porcine brain tissue

[5] = tested on: carrageenin-induced hyperalgesia; test: CITH / carrageenin-induced hyperalgesia; type: in vivo, rat (male Sprague-Dawley); conditions: for CITH % MPE 1 h / CITH % MPE 2 h: Table I; for percent of maximum possible effect (MPE): 30 mg/kg orally
Procedure: Carrageenin-Induced Hyperalgesia
Nociceptive pressure thresholds were measured in the rat paw pressure test using an analgesymeter (Randall-Selitto method: Randall L. O. and Selitto J. J., "A method for measurement of analgesic activity on inflamed tissue," Arch. Int. Pharmacodyn., 1957;4:409-419). Male Sprague-Dawley rats (70-90 g) were trained on this apparatus before the test day. Pressure was gradually applied to the hind paw of each rat and nociceptive thresholds were determined as the pressure (g) required to elicit paw withdrawal. A cutoff point of 250 g was used to prevent any tissue damage to the paw. On the test day, two to three baseline measurements were taken before animals were administered 100 μL of 2% carrageenin by intraplantar injection into the right hind paw. […] Animals were dosed with either gabapentin ([…].), morphine (3 mg/kg, s.c.) or saline at 3.5 hours after carageenin and nociceptive thresholds were examined at 4, 4.5, and 5 hours postcarrageenin.
(R)-2-Aza-spiro[4.5]decane-4-carboxylic acid hydrochloride was tested in the above carrageenan-induced hyperalgesia model. The compound was dosed orally at 30 mg/kg, and 1 hour postdose gave a percent of maximum possible effect (MPE) of 53%. At 2 hours postdose, it gave only 4.6% of MPE.

[6] = tested on: Sys L; test: Sys L; conditions: Table I

T1 sequence (A0A287BIN3 entry or part of it): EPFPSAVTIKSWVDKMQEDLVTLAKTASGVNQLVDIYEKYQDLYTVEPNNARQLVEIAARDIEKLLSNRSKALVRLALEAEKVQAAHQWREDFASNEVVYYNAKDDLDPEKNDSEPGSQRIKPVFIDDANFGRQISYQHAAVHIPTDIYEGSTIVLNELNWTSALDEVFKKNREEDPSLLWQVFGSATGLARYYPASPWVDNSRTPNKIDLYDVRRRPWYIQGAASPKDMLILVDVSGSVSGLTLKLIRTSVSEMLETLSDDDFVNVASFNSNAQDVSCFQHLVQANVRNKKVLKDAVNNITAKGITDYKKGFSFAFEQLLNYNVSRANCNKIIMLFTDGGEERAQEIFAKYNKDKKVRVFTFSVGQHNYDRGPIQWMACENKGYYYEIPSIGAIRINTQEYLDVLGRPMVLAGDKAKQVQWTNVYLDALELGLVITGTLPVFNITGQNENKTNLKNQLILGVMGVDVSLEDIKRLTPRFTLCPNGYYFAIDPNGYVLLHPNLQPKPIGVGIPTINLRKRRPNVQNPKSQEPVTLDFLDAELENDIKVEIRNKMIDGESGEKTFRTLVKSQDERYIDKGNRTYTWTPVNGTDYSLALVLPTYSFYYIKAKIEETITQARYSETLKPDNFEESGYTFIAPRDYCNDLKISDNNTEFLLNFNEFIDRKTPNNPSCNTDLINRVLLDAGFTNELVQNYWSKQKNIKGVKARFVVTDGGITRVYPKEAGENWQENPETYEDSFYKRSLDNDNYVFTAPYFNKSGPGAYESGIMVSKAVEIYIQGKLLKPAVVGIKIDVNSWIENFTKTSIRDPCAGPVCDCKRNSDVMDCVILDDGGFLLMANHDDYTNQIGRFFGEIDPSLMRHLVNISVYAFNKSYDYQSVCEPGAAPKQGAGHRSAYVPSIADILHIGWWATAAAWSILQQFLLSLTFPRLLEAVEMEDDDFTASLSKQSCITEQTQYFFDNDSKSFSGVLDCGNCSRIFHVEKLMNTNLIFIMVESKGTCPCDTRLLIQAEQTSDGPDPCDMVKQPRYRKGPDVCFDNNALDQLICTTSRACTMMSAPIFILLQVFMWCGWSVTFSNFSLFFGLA

SMILES	DBA 2 % Protect (time) ([2]; first value of the column) [%]	DBA 2 % Protect (time) ([2]; second value of the column) [%]	Vogel % of C1-1008 [3]	IC50 [4] [nM]	CITH % MPE 1 h [5] [% MPE]	CITH % MPE 2 h [5] [% MPE]	also measured
CC(C)C[C@H]1CNC[C@@H]1C(=O)O	20	40	0.63 % of C1-1008				NA Release % Inhibition [1]: 16%
CCC[C@H]1CNC[C@@H]1C(=O)O (relative stereo)				30			
CC(C)C[C@@H]1CNC[C@@H]1C(=O)O (stereo in doubt)	0	0		700	23	3.3	
CCCC[C@H]1CNC[C@@H]1C(=O)O (relative stereo)				64			
CC(C)[C@H]1CNC[C@@H]1C(=O)O (relative stereo)				543			
CC1(C)CNCC1C(=O)O (racemic)				1190			
Cl.O=C(O)[C@H]1CNCC12CCCCC2 [(R)-2-Aza-spiro[4.5]decane-4-carboxylic acid hydrochloride]	20	20		120	53	4.6	IC50 [6]: > 10000 µM; percent of maximum possible effect (MPE) ([5]; 1 hour postdose): 53%; percent of maximum possible effect (MPE) ([5]; 2 hours postdose): 4.6%
CC(C)C[C@@H]1CNC[C@H]1C(=O)O			-0.63 % of C1-1008				NA Release % Inhibition [1]: 8%
CC(C)C[C@H]1CNC[C@H]1C(=O)O (stereo in doubt) [Example 1, (cis)-4-Isobutyl-pyrrolidine-3-carboxylic acid]				135			
CC(C)C[C@H]1CNC[C@@H]1C(=O)O (stereo in doubt)	0	0			3	-15	
CC(C)C[C@H](CN)CC(=O)O [reference compound]	100	100	100 % of C1-1008	87	52.5	50.1	IC50 [6]: 193 µM
NCC1(CC(=O)O)CCCCC1 [reference compound]	100		63.7 % of C1-1008		48.9	19.9	IC50 [6]: 25 µM
C[C@H]1CNC[C@@H]1C(=O)O (relative stereo)				3100			
